Data as given in the supplement of paper PMC10307832.

Tests used:
Assay in all cases: relative viability (nuclei count vs DMSO), 5 days (fraction); higher = more cells survive
[1] = compound: C1CNCCC1C2=CC(=NN2)C3=CC=NC=C3
Outline: (§1)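 Lung cancer cell lines in 1536-well plates were exposed by pinning to five library-drug doses (not always all listed) √10 apart, following an overnight hold at 37 °C. MetaXpress counted Hoechst-stained nuclei from 4× images taken after 5 days without medium change. Viability is the median ratio of treated-well to vehicle-well nuclei across plates. Plates required control CV below 25% and at least one doubling.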

Tanzisertib = compound: O[C@H]1CC[C@H](Nc2ncc3nc(Nc4c(F)cc(F)cc4F)n([C@H]4CCOC4)c3n2)CC1 [Tanzisertib]
Outline: as §1

[2] = compound: C[C@@H](N)c1ccc(C(=O)Nc2ccnc3[nH]ccc23)cc1
Outline: as §1

[3] = compound: C1CNCCC1C2=CC(=NN2)C3=CC=NC=C3 + Cc1nc(NC(=O)N2CCC[C@H]2C(N)=O)sc1-c1ccnc(C(C)(C)C(F)(F)F)c1 [Alpelisib] (partner 2 µM)
Outline: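 Relative viability is defined as nuclei in treated wells over nuclei in vehicle wells. Duplicate plates were run and medians reported. Lung cancer cell lines in 1536-well plates were dosed by pin tool one day after seeding, with one drug or with a fixed anchor-drug dose plus five library-drug doses (not always all listed) in √10 steps, and nuclei were counted after 5 days.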

| Cell Line | relative viability ([1]; 0.08 µM) | relative viability ([1]; 0.8 µM) | relative viability ([1]; 2.53 µM) | relative viability ([1]; 8 µM) | relative viability (Tanzisertib; 0.08 µM) | relative viability (Tanzisertib; 0.253 µM) | relative viability (Tanzisertib; 0.8 µM) | relative viability (Tanzisertib; 2.53 µM) | relative viability (Tanzisertib; 8 µM) | relative viability ([2]; 0.04 µM) | relative viability ([2]; 0.1265 µM) | relative viability ([2]; 0.4 µM) | relative viability ([2]; 1.265 µM) | relative viability ([2]; 4 µM) | relative viability ([3]; first compound 0.08 µM) | relative viability ([3]; first compound 0.8 µM) | relative viability ([3]; first compound 2.53 µM) | relative viability ([3]; first compound 8 µM) |
| --- | --- | --- | --- | --- | --- | --- | --- | --- | --- | --- | --- | --- | --- | --- | --- | --- | --- | --- |
| CAL-12T | 1.01 | 1.18 | 1.08 | 0.99 | 1.03 | 1.09 | 1.08 | 1.05 | 1.03 | 1.11 | 1.04 | 1.23 | 0.945 | 0.839 | 0.929 | 1.56 | 1.51 | 1.28 |
| A-427 | 0.953 | 1.05 | 0.984 | 1.05 | 0.997 | 0.998 | 1.07 | 1.08 | 0.789 | 0.862 | 1.07 | 0.975 | – | 0.906 | 1.05 | 1.04 | 1.07 | 1.06 |
| HARA | 1.05 | 0.898 | 1.16 | 0.928 | 1.12 | 1.12 | 0.932 | 1.05 | 0.725 | 1 | 0.929 | 1.11 | 0.689 | 0.779 | 0.821 | 0.811 | 0.898 | 0.82 |
| NCI-H1793 | 0.835 | 0.702 | 0.923 | 0.878 | 1.07 | 0.857 | 0.998 | 0.758 | 0.522 | 0.973 | 0.952 | 1.08 | – | 1.11 | 0.659 | 0.569 | 0.783 | 0.739 |
| NCI-H2009 | 1.03 | 1.07 | 1.07 | 1 | 1.08 | 1.04 | 0.999 | 1.12 | 1.06 | 0.978 | 1.02 | 0.958 | 0.922 | 0.813 | 1.25 | 1.16 | 1.13 | 1.14 |
| ABC-1 | 0.975 | 0.817 | 1.07 | 1.02 | 1.03 | 0.995 | 0.882 | 1 | 0.957 | 0.767 | 1.07 | 0.918 | 0.579 | 0.901 | 0.997 | 0.857 | 1.19 | 1.13 |
| IA-LM | 1 | 1.01 | 0.996 | 1.02 | 1.08 | 0.989 | 0.989 | 0.96 | 0.94 | 1.13 | 1.1 | 1.4 | 1.16 | 1.12 | 0.834 | 0.763 | 0.762 | 0.837 |
| NCI-H322M | 0.93 | 0.923 | 0.92 | 1.02 | 1.06 | 0.969 | 1.02 | 0.919 | 0.867 | 1.14 | 1.12 | 1.14 | – | 1.25 | 1.39 | 0.7 | 0.933 | 0.761 |
| NCI-H1792 | 0.945 | 0.903 | 0.976 | 0.95 | 1.03 | 1.07 | 0.939 | 0.899 | 0.606 | 0.948 | 0.735 | 0.945 | 0.649 | 0.827 | 0.637 | 0.519 | 0.773 | 0.618 |
| LXF-289 | 1.04 | 1.05 | 0.991 | 1 | 1.08 | 0.986 | 1.07 | 1.05 | 1.16 | 1.03 | 1 | 1.03 | 1.05 | 0.902 | 1.03 | 0.973 | 1.06 | 1 |
| HCC-827 | 1.05 | 1.04 | 1.06 | 1.01 | 1.07 | 1.05 | 1.03 | 1.02 | 0.663 | 0.901 | 1.13 | 1.05 | 1.05 | 0.938 | 0.97 | 0.668 | 0.916 | 0.972 |
| EMC-BAC-2 | 0.78 | 0.97 | 1.07 | 0.98 | 0.989 | 1.31 | 0.99 | 1.04 | 0.82 | 0.769 | 1.02 | 0.945 | 0.789 | 0.795 | 0.755 | 0.659 | 0.72 | 0.758 |
| NCI-H520 | 0.899 | 0.816 | 0.988 | 1.03 | 1.09 | 0.981 | 1.03 | 0.919 | 0.907 | 1.14 | 1.12 | 0.999 | 1.03 | 1.15 | 0.88 | 0.666 | 0.831 | 0.658 |
| NCI-H1755 | 1.01 | 0.915 | 1.03 | 0.948 | 1.02 | 0.958 | 1 | 0.97 | 0.961 | 0.911 | 0.987 | 0.945 | 0.937 | 0.793 | 0.938 | 0.837 | 0.906 | 0.863 |
| NCI-H1993 | 0.889 | 0.911 | 0.978 | 1.02 | 1.06 | 0.952 | 0.969 | 0.822 | 0.786 | 0.989 | 1.1 | – | 0.9 | 0.996 | 0.654 | 0.668 | 0.699 | 0.669 |
| NCI-H23 | 0.866 | 0.988 | 1.26 | 1.14 | 1.18 | 1.01 | 1.06 | 0.998 | 0.43 | 0.895 | 0.999 | 1.12 | – | 0.826 | 0.614 | 0.691 | 0.713 | 0.69 |
| NCI-H1437 | 0.974 | 1.07 | 1 | 0.99 | 1 | 1.06 | 1.04 | 1.02 | 1.04 | 1.04 | 1.03 | 1.08 | 0.968 | 0.987 | 0.941 | 0.979 | 0.999 | 0.928 |
| SK-MES-1 | 1.03 | 0.925 | 1.05 | 0.999 | 1.08 | 0.984 | 0.975 | 0.992 | 0.808 | 0.987 | 0.969 | 1 | 0.878 | 0.82 | 0.961 | 0.688 | 0.903 | 0.885 |
